Results on 29 compounds are retold here after ChEMBL document CHEMBL4840335, “Rational Design and Development of Novel CDK9 Inhibitors for the Treatment of Acute Myeloid Leukemia” (J Med Chem, 2021).

The target of one test is CDK9/cyclin T1 (Homo sapiens, UniProt P50750). As to the kind of experiment: Inhibition of CDK9/cyclin T1 (unknown origin) incubated for 2 hrs in presence of ATP by FRET based LANCE assay. Format: protein-complex assay.
Test [1] has as its target CDK9/cyclin T1 (Homo sapiens) (UniProt O60563+P50750). As to the kind of experiment: Inhibition of CDK9/cyclin T1 (unknown origin) at 10 uM incubated for 2 hrs in presence of ATP by FRET based LANCE assay relative to control. Format: protein-complex assay.
In test [2] the target is Cyclin-dependent kinase 2 (Homo sapiens, UniProt P24941). Kind of test: Inhibition of CDK2 (unknown origin).
Test [3] deals with Cyclin-dependent kinase 4 (Homo sapiens, UniProt P11802). Kind of test: Inhibition of CDK4 (unknown origin).
Test [4] has as its target Cyclin-dependent kinase 6 (Homo sapiens, UniProt Q00534). Kind of test: Inhibition of CDK6 (unknown origin).
The target in test [5] is Cyclin-dependent kinase 7 (Homo sapiens, UniProt P50613). Kind of test: Inhibition of CDK7 (unknown origin).
Test [6] can be described thus: Antiproliferative activity against human MINO cells assessed as reduction in cell proliferation measured after 3 to 7 days by MTS assay. Format: functional, cell-based.
A further test has as its system Z-138. As to the kind of experiment: Antiproliferative activity against human Z138 cells assessed as reduction in cell proliferation measured after 3 to 7 days by MTS assay. Format: functional, cell-based.
The next test relates to JeKo-1. As to the kind of experiment: Antiproliferative activity against human JeKo-1 cells assessed as reduction in cell proliferation measured after 3 to 7 days by MTS assay. Format: functional, cell-based.
In a further test the test system is Raji. Kind of test: Antiproliferative activity against human Raji cells assessed as reduction in cell proliferation measured after 3 to 7 days by MTS assay. Format: functional, cell-based.
A further test deals with OCI-Ly10. As to the kind of experiment: Antiproliferative activity against human OCILY10 cells assessed as reduction in cell proliferation measured after 3 to 7 days by MTS assay. Format: functional, cell-based.
In another test the test system is TMD8. As to the kind of experiment: Antiproliferative activity against human TMD8 cells assessed as reduction in cell proliferation measured after 3 to 7 days by MTS assay. Format: functional, cell-based.
The subject of another test is MM1.S. Kind of test: Antiproliferative activity against human MM1.S cells assessed as reduction in cell proliferation measured after 3 to 7 days by MTS assay. Format: functional, cell-based.
In another test the test system is RPMI-8226. As to the kind of experiment: Antiproliferative activity against human RPMI-8226 cells assessed as reduction in cell proliferation measured after 3 to 7 days by MTS assay. Format: functional, cell-based.
A further test deals with Kasumi 1. As to the kind of experiment: Antiproliferative activity against human Kasumi 1 cells assessed as reduction in cell proliferation measured after 3 to 7 days by MTS assay. Format: functional, cell-based.
The subject of the next test is HL-60. As to the kind of experiment: Antiproliferative activity against human HL-60 cells assessed as reduction in cell proliferation measured after 3 to 7 days by MTS assay. Format: functional, cell-based.
A further test concerns CCRF-CEM. As to the kind of experiment: Antiproliferative activity against human CCRF-CEM cells assessed as reduction in cell proliferation measured after 3 to 7 days by MTS assay. Format: functional, cell-based.
For test [7], the system named is MV4-11. As to the kind of experiment: Antiproliferative activity against human MV4-11 cells assessed as reduction in cell proliferation measured after 3 to 7 days by MTS assay. Format: functional, cell-based.
For test [8], the system named is MV4-11. Kind of test: Induction of apoptosis in human MV4-11 cells assessed as activation of caspase-3 at 5 to 50 nM measured after 24 hrs by Western blot analysis. Format: functional, cell-based. Conditions: dose 5-50 nM.
For test [9], the system named is MV4-11. As to the kind of experiment: Induction of apoptosis in human MV4-11 cells assessed as activation of cleaved PARP at 5 to 50 nM measured after 24 hrs by Western blot analysis. Conditions: dose 5-50 nM. Format: functional, cell-based.
The subject of test [10] is MV4-11. As to the kind of experiment: Induction of apoptosis in human MV4-11 cells assessed as live cells at 10 nM measured after 24 hrs by annexinV-FITC/propidium iodide staining based flow cytometry (reference value: 95.14 %). Format: functional.
Test [11] has as its system MV4-11. Kind of test: Induction of apoptosis in human MV4-11 cells assessed as early apoptotic cells at 10 nM measured after 24 hrs by annexinV-FITC/propidium iodide staining based flow cytometry (reference value: 0.79 %). Format: functional.
For test [12], the system named is MV4-11. As to the kind of experiment: Induction of apoptosis in human MV4-11 cells assessed as late apoptotic cells at 10 nM measured after 24 hrs by annexinV-FITC/propidium iodide staining based flow cytometry (reference value: 3.04 %). Format: functional.
The subject of test [13] is MV4-11. As to the kind of experiment: Induction of apoptosis in human MV4-11 cells assessed as necrotic cells at 10 nM measured after 24 hrs by annexinV-FITC/propidium iodide staining based flow cytometry (reference value: 1.03 %). Format: functional.
Test [14] concerns MV4-11. As to the kind of experiment: Induction of apoptosis in human MV4-11 cells assessed as live cells at 50 nM measured after 24 hrs by annexinV-FITC/propidium iodide staining based flow cytometry (reference value: 95.14 %). Format: functional.
The test system of test [15] is MV4-11. Kind of test: Induction of apoptosis in human MV4-11 cells assessed as early apoptotic cells at 50 nM measured after 24 hrs by annexinV-FITC/propidium iodide staining based flow cytometry (reference value: 0.79 %). Format: functional.
Test [16] concerns MV4-11. As to the kind of experiment: Induction of apoptosis in human MV4-11 cells assessed as late apoptotic cells at 50 nM measured after 24 hrs by annexinV-FITC/propidium iodide staining based flow cytometry (reference value: 3.04 %). Format: functional.
Test [17] has as its system MV4-11. Kind of test: Induction of apoptosis in human MV4-11 cells assessed as necrotic cells at 50 nM measured after 24 hrs by annexinV-FITC/propidium iodide staining based flow cytometry (reference value: 1.03 %). Format: functional.

The structures appear in SMILES notation. Calls of active or inactive are those of the source. The calls are words filed in the database; no cut-off is given here. Bounds are passed on as bounds.

Sequence of CDK9/cyclin T1 (O60563 whole entry): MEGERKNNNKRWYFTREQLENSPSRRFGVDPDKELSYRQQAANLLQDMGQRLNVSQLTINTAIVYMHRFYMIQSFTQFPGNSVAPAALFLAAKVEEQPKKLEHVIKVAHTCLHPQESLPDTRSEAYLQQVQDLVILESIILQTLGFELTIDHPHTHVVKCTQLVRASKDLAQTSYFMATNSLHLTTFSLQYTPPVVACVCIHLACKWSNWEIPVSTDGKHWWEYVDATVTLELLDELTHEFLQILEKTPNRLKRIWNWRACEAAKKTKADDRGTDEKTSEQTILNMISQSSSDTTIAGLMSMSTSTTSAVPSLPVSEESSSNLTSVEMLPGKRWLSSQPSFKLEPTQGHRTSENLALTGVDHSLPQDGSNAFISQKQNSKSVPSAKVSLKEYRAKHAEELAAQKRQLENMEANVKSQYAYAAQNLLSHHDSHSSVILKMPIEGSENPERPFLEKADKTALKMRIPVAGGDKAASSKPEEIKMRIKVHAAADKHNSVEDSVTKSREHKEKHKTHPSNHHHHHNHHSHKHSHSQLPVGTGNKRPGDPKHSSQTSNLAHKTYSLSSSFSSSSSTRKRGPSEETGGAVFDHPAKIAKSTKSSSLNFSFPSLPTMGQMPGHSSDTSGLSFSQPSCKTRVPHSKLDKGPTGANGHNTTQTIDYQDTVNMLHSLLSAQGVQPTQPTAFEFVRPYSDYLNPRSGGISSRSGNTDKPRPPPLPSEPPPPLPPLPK
Sequence of CDK9/cyclin T1 (P50750 whole entry): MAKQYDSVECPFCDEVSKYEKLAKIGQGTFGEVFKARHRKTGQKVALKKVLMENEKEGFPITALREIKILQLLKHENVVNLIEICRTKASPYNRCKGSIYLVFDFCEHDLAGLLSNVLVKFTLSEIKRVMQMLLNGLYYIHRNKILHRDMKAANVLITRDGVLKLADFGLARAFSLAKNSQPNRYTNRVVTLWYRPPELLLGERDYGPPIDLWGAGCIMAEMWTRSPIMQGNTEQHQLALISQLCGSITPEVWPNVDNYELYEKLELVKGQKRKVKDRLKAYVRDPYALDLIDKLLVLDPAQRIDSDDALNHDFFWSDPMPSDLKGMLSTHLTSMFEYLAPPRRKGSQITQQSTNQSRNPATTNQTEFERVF
Sequence of Cyclin-dependent kinase 4 (P11802 whole entry): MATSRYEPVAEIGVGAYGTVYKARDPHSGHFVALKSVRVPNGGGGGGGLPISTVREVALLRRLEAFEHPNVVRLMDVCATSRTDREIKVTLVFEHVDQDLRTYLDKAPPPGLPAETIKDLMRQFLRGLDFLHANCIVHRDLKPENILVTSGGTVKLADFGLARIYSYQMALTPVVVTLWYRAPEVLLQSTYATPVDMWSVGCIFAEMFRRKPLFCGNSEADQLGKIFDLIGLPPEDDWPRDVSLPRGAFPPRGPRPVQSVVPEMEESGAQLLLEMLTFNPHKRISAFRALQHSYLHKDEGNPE
Sequence of Cyclin-dependent kinase 6 (Q00534 whole entry): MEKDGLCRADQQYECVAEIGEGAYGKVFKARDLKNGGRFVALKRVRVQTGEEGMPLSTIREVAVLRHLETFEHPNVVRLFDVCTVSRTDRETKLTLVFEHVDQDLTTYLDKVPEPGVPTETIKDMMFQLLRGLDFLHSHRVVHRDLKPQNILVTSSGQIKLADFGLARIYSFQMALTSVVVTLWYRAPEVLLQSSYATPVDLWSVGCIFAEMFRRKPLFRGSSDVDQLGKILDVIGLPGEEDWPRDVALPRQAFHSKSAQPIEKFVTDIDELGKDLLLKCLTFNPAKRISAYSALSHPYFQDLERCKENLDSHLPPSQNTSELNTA
Sequence of Cyclin-dependent kinase 7 (P50613 whole entry): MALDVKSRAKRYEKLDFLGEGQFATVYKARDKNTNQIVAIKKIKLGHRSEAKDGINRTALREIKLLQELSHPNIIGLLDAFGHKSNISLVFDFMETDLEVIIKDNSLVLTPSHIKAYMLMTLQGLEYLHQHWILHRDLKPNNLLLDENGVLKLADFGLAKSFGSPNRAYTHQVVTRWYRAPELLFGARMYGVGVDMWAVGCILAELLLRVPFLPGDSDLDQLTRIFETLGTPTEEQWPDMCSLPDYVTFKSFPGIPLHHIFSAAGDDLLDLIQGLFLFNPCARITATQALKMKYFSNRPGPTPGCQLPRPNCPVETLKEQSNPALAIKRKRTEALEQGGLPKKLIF

With `Cc1n[nH]c2ccc(-c3cncc(NC(CO)c4cccc(OC(F)(F)F)c4)n3)cc12` (racemic), on CDK9/cyclin T1, the IC50 was found to be 633 nM.
Regarding `OC[C@H](Nc1cncc(-c2ccc3[nH]ncc3c2)n1)c1ccccc1`, the IC50 on CDK9/cyclin T1 was determined as 42.3 nM.
As to `Cc1cccc(C(CO)Nc2cncc(-c3ccc4[nH]nc(C)c4c3)n2)c1` (racemic), the IC50 on CDK9/cyclin T1 came out at 153 nM.
Take `Cc1nc2c(F)cc(-c3cncc(NC(CO)c4ccccc4)n3)cc2n1C(C)C` (centres undefined): the inhibition in [1] stood at 13.8%.
Turning to `Cc1n[nH]c2ccc(-c3cncc(N[C@@H](CO)c4ccccc4)n3)cc12`, the IC50 at CDK9/cyclin T1 is 6.04 nM; in test [2] it was 67.4 nM; in [3] it was more than 1000 nM; in test [4], more than 1000 nM; in [5] it was more than 1000 nM.
`Cc1n[nH]c2ccc(-c3cncc(NC(CO)c4ccccc4F)n3)cc12` (racemic): the half-maximal inhibitory concentration (IC50) on CDK9/cyclin T1 amounted to 24.2 nM.
Turning to `COC[C@H](C)N[C@H]1CC[C@H](Nc2cc(-c3cccc(NCC4(C#N)CCOCC4)n3)c(Cl)cn2)CC1`, the half-maximal inhibitory concentration (IC50) is 4.96 nM on CDK9/cyclin T1; more than 1000 nM in [2]; more than 1000 nM in test [3]; more than 1000 nM in [4]; more than 1000 nM in test [5]; 5.2 nM in [6]. For the same compound, the IC50 with Z-138 is 3.7 nM; in the test on JeKo-1 it was 10 nM; in the test on Raji, 11 nM; in the test on OCI-Ly10 it was 2.1 nM; in the test with TMD8, 15 nM; in the test with MM1.S, 6.3 nM. Moreover, the IC50 with RPMI-8226 came to 14 nM; in the test on Kasumi 1, 6.8 nM; in the test on HL-60, 5.7 nM; with CCRF-CEM, 3.3 nM; in the test with MV4-11 [7], 5.4 nM. Also, the result in the test on MV4-11 [8] and in the test with MV4-11 [9] was Active. Besides, the Activity came out at 77.97% with MV4-11 [10]; 3.33% in the test on MV4-11 [11]; 15.48% in the test on MV4-11 [12]; 3.23% in the test with MV4-11 [13]; 4.36% with MV4-11 [14]; 1.8% in the test on MV4-11 [15]. Moreover, the Activity in the test with MV4-11 [16] amounted to 77.18%; in the test with MV4-11 [17] it was 16.67%.
Turning to `OCC(Nc1cncc(-c2ccc3occc3c2)n1)c1ccccc1` (centres undefined), on CDK9/cyclin T1, the IC50 is 8920 nM.
`Cc1n[nH]c2ccc(-c3cncc(N[C@@H](CO)c4ccc(F)c(F)c4)n3)cc12`: the IC50 at CDK9/cyclin T1 is 24.7 nM.
Regarding `Cc1n[nH]c2ncc(-c3cncc(N[C@@H](CO)c4ccccc4)n3)cc12`, the IC50 on CDK9/cyclin T1 is 6.57 nM.
Regarding `Cc1n[nH]c2ncc(-c3cc(N[C@@H](CO)c4ccccc4)cnc3Cl)cc12`, the IC50 was 20.7 nM on CDK9/cyclin T1; more than 1000 nM in [2]; more than 1000 nM in test [3]; more than 1000 nM in [4]; more than 1000 nM in test [5].
Regarding `Cc1n[nH]c2ccc(-c3cncc(NC4CCCC(O)C4)n3)cc12` (centres undefined), the IC50 on CDK9/cyclin T1 was 643 nM; in [2], 52.9 nM; in test [3], more than 1000 nM; in [4] it was more than 1000 nM; in [5] it was 322 nM.
On to `COc1cc(F)ccc1-c1cncc(NC(CO)c2ccccc2)n1` (centres undefined), for which the inhibition in test [1] was 12.4%.
Take `Cc1n[nH]c2ccc(-c3cncc(N[C@H](C)c4ccccc4)n3)cc12`: the IC50 on CDK9/cyclin T1 was found to be 883 nM.
On to `Cc1n[nH]c2ccc(-c3cc(N[C@@H](CO)c4ccc(F)cc4)cnc3Cl)cc12`, for which the IC50 on CDK9/cyclin T1 was found to be 26.5 nM.
For `Cc1n[nH]c2ccc(-c3cncc(NC(C)CO)n3)cc12` (centres undefined), the IC50 on CDK9/cyclin T1 was determined as 995 nM.
For `Cc1n[nH]c2ccc(-c3cncc(N[C@@H](CO)c4cccc(F)c4)n3)cc12`, the IC50 was 9.15 nM at CDK9/cyclin T1; 34.5 nM in test [2]; more than 1000 nM in test [3]; more than 1000 nM in test [4]; 496 nM in test [5].
With `Cc1n[nH]c2ccc(-c3cncc(N[C@H](CO)c4ccccc4)n3)cc12`, the IC50 at CDK9/cyclin T1 was 8770 nM.
In the case of `Cc1n[nH]c2ccc(-c3cncc(N[C@@H](CO)c4ccc(Cl)cc4)n3)cc12`, the IC50 on CDK9/cyclin T1 turned out to be 75.6 nM.
On to `Cc1n[nH]c2ccc(-c3cncc(NC(CO)c4ccc(F)cc4)n3)cc12` (racemic), for which, at CDK9/cyclin T1, the IC50 turned out to be 50.3 nM.
For `COc1ccc([C@H](CO)Nc2cncc(-c3ccc4[nH]nc(C)c4c3)n2)cc1`, at CDK9/cyclin T1, the IC50 came to 774 nM.
For `Cc1n[nH]c2ccc(-c3cncc(NC(CO)c4ccc(F)c(F)c4)n3)cc12` (racemic), the IC50 on CDK9/cyclin T1 came out at 27.3 nM.
For `Cc1n[nH]c2ccc(-c3cncc(NC(CO)c4cccc(C(F)(F)F)c4)n3)cc12` (racemic), at CDK9/cyclin T1, the IC50 was found to be 341 nM.
`O=c1[nH]c2ccc(-c3cncc(NC(CO)c4ccccc4)n3)cc2[nH]1` (centres undefined): the inhibition in test [1] came to 0.61%.
Consider `Cc1n[nH]c2ccc(-c3cncc(N[C@H](C)c4ccc(F)cc4)n3)cc12`, for which the IC50 on CDK9/cyclin T1 was determined as 6800 nM.
Consider `O=C1Cc2cc(-c3cncc(NC(CO)c4ccccc4)n3)ccc2N1` (centres undefined), for which the inhibition in [1] came out at 31.4%.
For the compound `OCC(Nc1cncc(-c2ccc3nccnc3c2)n1)c1ccccc1` (centres undefined), the inhibition in [1] stood at 2.63%.
On to `Cc1n[nH]c2ccc(-c3cncc(NC(CO)c4ccccc4)n3)cc12` (racemic), for which the IC50 on CDK9/cyclin T1 is 14.2 nM; in [2] it was 147 nM; in test [3], more than 1000 nM; in [4], more than 1000 nM; in test [5] it was more than 1000 nM.
Regarding `Cc1n[nH]c2ccc(-c3cncc(N[C@@H](CO)c4ccc(F)cc4)n3)cc12`, the IC50 at CDK9/cyclin T1 was 20.4 nM; in test [2] it was 56.1 nM; in [3], more than 1000 nM; in test [4], more than 1000 nM; in test [5], more than 1000 nM.
